In ChEMBL document CHEMBL1201862, “PubChem BioAssay data set” (2004):
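Assay format: 96-well plates, 48-hour exposure. GI50 marks 50% less growth.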 Calls of active or inactive are those of the source. Cut-off read from the data, not from the text of the source: active = GI50 up to about 1.1 µM and inactive = higher.

Key:
Experiment in all cases: DTP human tumour cell line panel, 48 h
SK-MEL-2 = test system: SK-MEL-2
SW-620 = test system: SW-620
HOP-18 = test system: HOP-18
M14 = test system: M14
SF-268 = test system: SF-268
SN12C = test system: SN12C
NCI-H522 = test system: NCI-H522
RPMI-8226 = test system: RPMI-8226
SK-OV-3 = test system: SK-OV-3
SNB-78 = test system: SNB-78
HCT-116 = test system: HCT-116
HL-60 = test system: HL-60
COLO 205 = test system: COLO 205
HT-29 = test system: HT-29
KM-20L2 = test system: KM-20L2
NCI-H460 = test system: NCI-H460
NCI-H226 = test system: NCI-H226
786-0 = test system: 786-0
SF-295 = test system: SF-295
M19-MEL = test system: M19-MEL
SF-539 = test system: SF-539
KM12 = test system: KM12
TK-10 = test system: TK-10
LXFL 529 = test system: LXFL 529
DLD-1 = test system: DLD-1
CCRF-CEM = test system: CCRF-CEM
Malme-3M = test system: Malme-3M
CAKI-1 = test system: CAKI-1
UACC-62 = test system: UACC-62
RXF 393 = test system: RXF 393
DMS-273 = test system: DMS-273
LOX IMVI = test system: LOX IMVI
MOLT-4 = test system: MOLT-4
OVCAR-8 = test system: OVCAR-8
A549 = test system: A549
OVCAR-5 = test system: OVCAR-5
K562 = test system: K562
SK-MEL-5 = test system: SK-MEL-5
SK-MEL-28 = test system: SK-MEL-28
OVCAR-4 = test system: OVCAR-4
SR = test system: SR
SNB-19 = test system: SNB-19
HCC 2998 = test system: HCC 2998
U-251 = test system: U-251
SNB-75 = test system: SNB-75
UO-31 = test system: UO-31
IGROV-1 = test system: IGROV-1
OVCAR-3 = test system: OVCAR-3
UACC-257 = test system: UACC-257
EKVX = test system: EKVX
NCI-H23 = test system: NCI-H23
HOP-62 = test system: HOP-62
HOP-92 = test system: HOP-92
ACHN = test system: ACHN
HCT-15 = test system: HCT-15

O=C(c1ccccc1)c1nnc(C(=O)c2ccccc2)nn1
GI50 (SK-MEL-2): > 344 µM (inactive)
GI50 (SW-620): > 344 µM (inactive)
GI50 (HOP-18): > 344 µM (inactive)
GI50 (M14): 272 µM (inactive)
GI50 (SF-268): > 344 µM (inactive)
GI50 (SN12C): > 344 µM (inactive)
GI50 (NCI-H522): 134 µM (inactive)
GI50 (RPMI-8226): > 344 µM (inactive)
GI50 (SK-OV-3): 278 µM (inactive)
GI50 (SNB-78): 170 µM (inactive)
GI50 (HCT-116): > 344 µM (inactive)
GI50 (HL-60): > 344 µM (inactive)
GI50 (COLO 205): > 344 µM (inactive)
GI50 (HT-29): > 344 µM (inactive)
GI50 (KM-20L2): > 344 µM (inactive)
GI50 (NCI-H460): > 344 µM (inactive)
GI50 (NCI-H226): > 344 µM (inactive)
GI50 (786-0): 179 µM (inactive)
GI50 (SF-295): 139 µM (inactive)
GI50 (M19-MEL): > 344 µM (inactive)
GI50 (SF-539): > 344 µM (inactive)
GI50 (KM12): > 344 µM (inactive)
GI50 (TK-10): > 344 µM (inactive)
GI50 (LXFL 529): 266 µM (inactive)
GI50 (DLD-1): > 344 µM (inactive)
GI50 (CCRF-CEM): 265 µM (inactive)
GI50 (Malme-3M): > 344 µM (inactive)
GI50 (CAKI-1): > 344 µM (inactive)
GI50 (UACC-62): > 344 µM (inactive)
GI50 (RXF 393): 151 µM (inactive)
GI50 (DMS-273): > 344 µM (inactive)
GI50 (LOX IMVI): 282 µM (inactive)
GI50 (MOLT-4): > 344 µM (inactive)
GI50 (OVCAR-8): > 344 µM (inactive)
GI50 (A549): > 344 µM (inactive)
GI50 (OVCAR-5): > 344 µM (inactive)
GI50 (K562): 119 µM (inactive)
GI50 (SK-MEL-5): > 344 µM (inactive)
GI50 (SK-MEL-28): > 344 µM (inactive)
GI50 (OVCAR-4): > 344 µM (inactive)
GI50 (SR): 4.45 µM (inactive)
GI50 (SNB-19): > 344 µM (inactive)
GI50 (HCC 2998): 36.3 µM (inactive)
GI50 (U-251): 165 µM (inactive)
GI50 (SNB-75): 83.4 µM (inactive)
GI50 (UO-31): > 344 µM (inactive)
GI50 (IGROV-1): > 344 µM (inactive)
GI50 (OVCAR-3): > 344 µM (inactive)
GI50 (UACC-257): > 344 µM (inactive)
GI50 (EKVX): > 344 µM (inactive)
GI50 (NCI-H23): 308 µM (inactive)
GI50 (HOP-62): > 344 µM (inactive)
GI50 (HOP-92): 166 µM (inactive)
GI50 (ACHN): > 344 µM (inactive)
GI50 (HCT-15): > 344 µM

CCCn1c(SCCSc2c3ccccc3c(-c3nc(F)nc(F)n3)n2CCC)c2ccccc2c1-c1nc(F)nc(F)n1
GI50 (SK-MEL-2): > 100 µM (inactive)
GI50 (SW-620): 13.8 µM (inactive)
GI50 (HOP-18): > 100 µM (inactive)
GI50 (M14): > 100 µM (inactive)
GI50 (SF-268): > 100 µM (inactive)
GI50 (SN12C): > 100 µM (inactive)
GI50 (NCI-H522): > 100 µM (inactive)
GI50 (RPMI-8226): 27.3 µM (inactive)
GI50 (SK-OV-3): > 100 µM (inactive)
GI50 (SNB-78): > 100 µM (inactive)
GI50 (HCT-116): > 100 µM (inactive)
GI50 (HL-60): > 100 µM (inactive)
GI50 (COLO 205): 38 µM (inactive)
GI50 (HT-29): > 100 µM (inactive)
GI50 (KM-20L2): 91.6 µM (inactive)
GI50 (NCI-H460): > 100 µM (inactive)
GI50 (786-0): > 100 µM (inactive)
GI50 (SF-295): > 100 µM (inactive)
GI50 (SF-539): 38.6 µM (inactive)
GI50 (KM12): > 100 µM (inactive)
GI50 (TK-10): > 100 µM (inactive)
GI50 (LXFL 529): 88.9 µM (inactive)
GI50 (DLD-1): 20.5 µM (inactive)
GI50 (CCRF-CEM): 46.9 µM (inactive)
GI50 (Malme-3M): > 100 µM (inactive)
GI50 (CAKI-1): > 100 µM (inactive)
GI50 (UACC-62): > 100 µM (inactive)
GI50 (RXF 393): > 100 µM (inactive)
GI50 (DMS-273): > 100 µM (inactive)
GI50 (MOLT-4): > 100 µM (inactive)
GI50 (OVCAR-8): > 100 µM (inactive)
GI50 (A549): > 100 µM (inactive)
GI50 (OVCAR-5): > 100 µM (inactive)
GI50 (K562): > 100 µM (inactive)
GI50 (SK-MEL-28): > 100 µM (inactive)
GI50 (OVCAR-4): > 100 µM (inactive)
GI50 (SR): 27 µM (inactive)
GI50 (SNB-19): > 100 µM (inactive)
GI50 (HCC 2998): > 100 µM (inactive)
GI50 (U-251): > 100 µM (inactive)
GI50 (SNB-75): > 100 µM (inactive)
GI50 (UO-31): > 100 µM (inactive)
GI50 (OVCAR-3): > 100 µM (inactive)
GI50 (UACC-257): > 100 µM (inactive)
GI50 (EKVX): > 100 µM (inactive)
GI50 (NCI-H23): > 100 µM (inactive)
GI50 (HOP-62): > 100 µM (inactive)
GI50 (HOP-92): > 100 µM (inactive)
GI50 (ACHN): 82.6 µM (inactive)
GI50 (HCT-15): > 100 µM
